The values below are quoted from earlier work in US10561609B2, “Antiviral compositions” (The University of Liverpool, priority 2010, dated 2020).

Structures can show the parent of a compound that is named as a salt.

For the data set the following is noted: according to M. Fardis and R. Oliyai; same value restated in g/L.

Take `CC(C)OC(=O)OCOP(=O)(CO[C@H](C)Cn1cnc2c(N)ncnc21)OCOC(=O)OC(C)C` [tenofovir disoproxil fumarate]: the water solubility is 13.4 mg/mL.
